The record followed here is PMC9705869, “Chromophorylation of a Novel Cyanobacteriochrome GAF Domain from Spirulina and Its Response to Copper Ions” (Journal of Microbiology and Biotechnology, 2020).

The target in this experiment is T1, SPI1085g2 (Spirulina subsalsa, UniProt A0ABT3L563).
T1 construct: gene K4A83_08105; second GAF domain (GAF2) only, residues 216-369 of SPI1085; N-terminal polyhistidine tag kept (pETDuet); expressed in E. coli BL21(DE3) with ho1::pcyA or ho1::pebS
T1 sequence (A0ABT3L563 216-369): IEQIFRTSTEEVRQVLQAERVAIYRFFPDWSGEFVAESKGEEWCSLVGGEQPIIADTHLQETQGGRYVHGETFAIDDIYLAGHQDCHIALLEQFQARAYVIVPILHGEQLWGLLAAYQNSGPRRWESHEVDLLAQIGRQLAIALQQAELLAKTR
In words: zinc-induced fluorescence on SDS-PAGE; absorbance and acid-urea denaturation. Conditions: covalent, KPB pH […]. In kind it is binding.

On to `C/C=C1/C(=C/c2[nH]c(/C=C3N=C(/C=C4\NC(=O)C(CC)=C4C)C(C)=C\3CCC(=O)O)c(CCC(=O)O)c2C)NC(=O)[C@@H]1C` [PCB, phycocyanobilin], for which the “zinc-induced fluorescence on SDS-PAGE; absorbance and acid-urea denaturation” value (chromophore assembled in E. coli co-expressing ho1 and pcyA) is given as “SPI1085g2 can covalently bind PCB, as demonstrated by the zinc-dependent fluorescence observed by SDS-PAGE”.
On to `C=CC1=C(C)[C@@H](Cc2[nH]c(/C=C3N=C(/C=C4\NC(=O)[C@H](C)\C4=C/C)C(C)=C\3CCC(=O)O)c(CCC(=O)O)c2C)NC1=O` [PEB, phycoerythrobilin], for which the “zinc-induced fluorescence on SDS-PAGE; absorbance and acid-urea denaturation” value (chromophore assembled in E. coli co-expressing ho1 and pebS) is given as “resulted in highly efficient binding of PEB to SPI1085g2”.
